[PEt] = P-ethoxy (ethyl phosphotriester) internucleoside linkage
What was measured:
[1] = test system: 32Dp210 Bcr-Abl positive leukemia cells; experiment: Survival of mice injected with 32Dp210 Bcr-Abl positive leukemia cells, first study; format: in vivo
Method: In one study, mice injected with 32Dp210 Bcr-Abl positive leukemia cells were treated with BP1001 (15 mg/kg/dose) or control (empty DOPC liposomes) intravenously beginning one day after injection of tumor cells, twice weekly for up to 6 weeks Mice were observed daily for moribundity/morbidity. All surviving mice were euthanized on Day 40. In mice injected with 32Dp210 Bcr-Abl positive leukemia cells, 60% treated with BP1001 survived to 40 days (end of study) compared to 17% of mice receiving empty liposomes. Mean survival duration in these treated animals was 31.6±13.1 days compared to 23.7±8.3 days in the empty liposome group (FIG. 6A).

[2] = test system: CHO cells; experiment: In vitro mammalian chromosome aberration test; format: cell-based; settings: non-activated and S9-activated
Method: BP1001 was tested in the chromosome aberration assay using CHO cells in both the absence and presence of an Aroclor-induced S9 activation system. A preliminary toxicity test was performed to establish the dose range for the chromosome aberration assay. The chromosome aberration assay was used to evaluate the clastogenic potential of the BP1001. Based on the findings of this study, BP1001 was concluded to be negative for the induction of structural and numerical chromosome aberrations in CHO cells in both the non-activated and the S9-activated test systems.

[3] = Phase I study: dose-limiting toxicity and maximum tolerated dose; format: in vivo, human
Method: A BP1001 phase I study was conducted in two parts: (A) BP1001 dose escalation and (B) BP1001 with concurrent low-dose cytarabine (LDAC) dose expansion. For dose escalation (Part A), a standard “3+3” design was used in which successive cohorts of 3 or more patients with hematologic malignancies were treated at escalating doses from 5 to 135 mg/m^2 of BP1001 until a maximum tolerated dose (MTD) was identified. For the dose expansion portion of the study (Part B), two successive subsets of patients with AML were treated with BP1001 at the MTD (or highest tested dose [HTD]) and one level below the MTD (or HTD) in combination with a fixed dose of LDAC to further characterize safety and biological effect, as well as identify the recommended phase 2 dose. Both parts of the study employed an open-label, sequential, dose-escalation design to assess safety, tolerability and toxicity, pharmacokinetics (PK), tumor response, and anti-leukemic activity. A total of 39 patients were treated in the study: AML (n=30), CML-BP (n=5), and MDS (n=4). Of 39 patients, 27 were evaluable; 12 failed completion of a full cycle due to disease progression and were replaced per protocol. Only one patient on 5 mg/m^2 experienced a dose-limiting toxicity (DLT), grade 3 mucositis and hand-foot syndrome, while on high-dose hydroxyurea for proliferative CML-BP. The study medication could not be ruled out as a contributing factor, so this event was reported as a DLT. Upon expansion to six patients, no other patient developed a DLT. No other drug related toxicity has been observed in any of the patients treated. […] The HTD for BP1001 is 90 mg/m^2.
The study was designed as a standard 3+3 dose escalation trial for the assessment of safety, pharmacokinetics and efficacy of BP1001 in adult patients diagnosed with refractory/relapsed Philadelphia chromosome positive CML or ALL, AML, or MDS. Cohorts of three patients were enrolled at each dose level. The initial dose of BP1001 was 5 mg/m^2 (Cohort 1). If one patient developed a grade 3 or higher toxicity, three more patients were accrued at that dose level. […]

BP1001: liposome-incorporated P-ethoxy antisense oligodeoxynucleotide (5′-ATATTTGGCGATGGCTTC-3′, SEQ ID NO: 1) specific to grb2 mRNA, in neutral DOPC liposomes (DNA, all [PEt], methylation of C not given here; incorporated in neutral DOPC liposomes)
Mean survival duration ([1]; 15 mg/kg/dose i.v. twice weekly): 31.6 ± 13.1 days | mice surviving to 40 days (end of study) ([1]; 15 mg/kg/dose i.v. twice weekly from day 1 after tumor cells): 60% | induction of structural and numerical chromosome aberrations [2]: negative | patients with dose-limiting toxicity (grade 3 mucositis and hand-foot syndrome) ([3]; 5 mg/m^2, patient on high-dose hydroxyurea for CML-BP, no other DLT after expansion to six): one | highest tested dose (HTD) ([3]; patients): 90 mg/m^2 | maximum tolerated dose (MTD) ([3]; patients, 5 to 90 mg/m^2 i.v. twice weekly): not identified

Reference: patent US20200032271A1, “COMBINATION THERAPY WITH LIPOSOMAL ANTISENSE OLIGONUCLEOTIDES” (Bio-Path Holdings, Inc., priority 2016, published 2020)
